Results reported in publication PMC3997621 (The Journal of comparative neurology, 2014).

Target: T1, InvD1L (invertebrate specific D1-like dopamine receptor) (Ixodes scapularis, UniProt A0ACM8DGL0)
T1 sequence (A0ACM8DGL0 1-457): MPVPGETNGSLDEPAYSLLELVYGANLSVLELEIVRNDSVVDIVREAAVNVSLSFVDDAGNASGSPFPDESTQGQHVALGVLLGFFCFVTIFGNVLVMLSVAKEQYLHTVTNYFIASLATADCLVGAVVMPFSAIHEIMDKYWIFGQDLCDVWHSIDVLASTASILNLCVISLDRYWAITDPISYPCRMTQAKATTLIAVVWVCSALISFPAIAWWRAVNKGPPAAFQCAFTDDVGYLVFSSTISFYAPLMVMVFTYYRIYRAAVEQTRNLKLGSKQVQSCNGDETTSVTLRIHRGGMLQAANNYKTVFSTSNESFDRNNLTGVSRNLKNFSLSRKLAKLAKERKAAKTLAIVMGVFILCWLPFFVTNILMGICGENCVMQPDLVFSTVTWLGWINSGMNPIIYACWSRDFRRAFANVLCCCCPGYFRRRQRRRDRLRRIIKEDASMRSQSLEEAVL
Assay: cell-based

EC50: 1340 nM
SMILES: NCCc1ccc(O)c(O)c1 [DA, dopamine]
